From patent US10711006B2, “Selective Bruton's tyrosine kinase inhibitor and use thereof” (HANGZHOU HERTZ PHARMACEUTICAL CO., LTD., priority 2016, dated 2020)

Experiments:
BTK Kinase = BTK Kinase (Homo sapiens (Human), UniProt Q06187); test: In-vitro Btk kinase inhibitory activity assay; type: biochemical
Protocol: In-Vitro Btk Kinase Inhibitory Activity Assay for Compounds of the Present Invention:
10 μL of the 50× drug stock solution was added to a 96-well plate and then 90 μL of a 1× Kinase Buffer was added and the 96-well plate was shaken for 10 minutes on a shaker. From each well of the 96-well plate, 5 μL of the drug solution was taken and then transferred to a 384-well plate which was provided with 2 duplicate wells.
Preparation of a 2.5× Kinase Buffer: an enzyme was added to the 1× kinase base buffer.
Prepare a 2.5× oligopeptide solution: FAM-labeled oligopeptide and ATP were added to the 1× kinase base buffer.
10 μL of the 2.5× Kinase Buffer was added to the 384-well plate loaded with 5 μL of the drug solution and incubation was then carried out for 10 minutes at room temperature. 10 μL of the 2.5× oligopeptide solution was added to the 384-well plate and incubation was then carried out for 1 hour at 28° C. The reaction was stopped by adding 25 μL of a stop buffer. The readings were recorded and the inhibition rate of the compound on the enzyme was calculated. The IC50 of BTK kinase was calculated by fitting.

hERG potassium channel = hERG potassium channel (Homo sapiens (Human), UniProt Q12809); test: hERG potassium channel inhibitory activity, manual patch clamp in CHO cells; type: cell-based; conditions: CHO cells stably expressing hERG, whole-cell patch clamp
Protocol: The cells used in this experiment were CHO cell lines transfected with HergCdna and stably expressing Herg channels (supplied by Sophion Bioscience, Denmark). The cells were cultured in a medium containing the following components (all from Invitrogen): Ham's F12 medium, 10% (v/v) inactivated fetal bovine serum, 100 μg/ml hygromycin B, 100 μg/ml Geneticin. […] 24 to 48 hours before an electrophysiological experiment, CHO Herg cells were transferred to circular slides placed in the culture dishes and grow with the same culture liquid under the same culture conditions as above. The density of CHO Herg cells on each circular slide was required to reach such a value that most cells were independent and stand alone.
2. Treatment and Dilution of a Compound
Before the test, the compound was first diluted with DMSO at gradient to make stock solutions with concentrations of 10, 3, 1, 0.3 and 0.1 Mm and the stock solutions were then diluted with extracellular fluid to a final Mm test concentration. Except that the DMSO concentration in the 30 Mm compound test solution was 0.3%, the final concentration of DMSO in each of the compound solutions with other concentrations was 0.1%. The test concentration of a positive control Cisapridewas 0.1 Mm. All compound solutions were conventionally sonicated and shaken for 5 to 10 minutes to ensure complete dissolution of the compound.
3. Electrophysiological Recording System and Data Analysis
This experiment uses a manual patch clamp system (HEKA EPC-10 signal amplifier and digital conversion system, purchased from HEKA Electronics, Germany) for the recording of whole cell currents. The circular slides with CHO Herg cells growing on the surfaces were placed in an electrophysiological recording slot under an inverted microscope. The extracellular fluid was used for continuous perfusion in the recording slot (approximately lml per minute). The experimental procedure uses a conventional whole-cell patch clamp current recording technique. Unless otherwise stated, the experiment was carried out at regular room temperature ([…]). The cells were clamped at a voltage of −80 Mv. The cell clamp voltage was depolarized to +20 Mv to activate the Herg potassium channel, and 5 seconds later, it was clamped to −50 Mv to eliminate inactivation and generate tail current. The peak of the tail current was used as the value of the Herg current. After the hERG potassium current recorded in the above step was stabilized under the continuous extracellular fluid perfusion in the recording slot, the drug to be tested can be superimposed to the perfusion until the inhibitory effect of the drug on the hERG current reaches a steady state. Generally, the criterion for determine whether or not the stable state was reached was that the recent three consecutive current recording lines were coincident. After the steady state was reached, extracellular fluid perfusion was carried out for flushing until the hERG current returns to the magnitude before the drug was added. One cell may be used for testing one or more drugs, or multiple concentrations of the same drug, and flushing with extracellular fluid was carried out between tests of different drugs. Cisapride (purchased from Sigma) was used in the experiment as a positive control to ensure that the cells used were of normal quality. The test data was analyzed by data analysis software provided by HEKA Patchmaster, Microsoft Excel and Graphpad Prism.

[1] = system: diffuse giant B-cell lymphoma (OCI-LY10); test: In-vitro tumor cell proliferation inhibition (CCK-8), OCI-LY10; conditions: Homo sapiens, OCI-Ly10, 72 h, read-out: Tumor cell proliferation inhibitory activity (IC50, nM) OCI-LY10
Protocol: (§1) The in-vitro antitumor activity assay was carried out on the synthesized compound by using different solid tumors and leukemia cell lines:
(§2) Cell lines: human lung cancer cell (A549), human mantle cell lymphoma (MINO), diffuse giant B-cell lymphoma (OCI-LY10), and human diffuse large B lymphoma (TMD-8).
(§3) Preparation method of the drug: the drug was dissolved in DMSO to make a 10 mM stock solution, and then the stock solution was diluted in a certain ratio to obtain 5 different concentrations (test concentration 100×). In-vitro culture of tumor cells:
(§4) The tumor cells A549, MINO, OCI-LY10, and TMD-8 were seeded in a 96-well plate at 4000 cells/200 μL/well and then incubated overnight at 37° C. in a 5% CO2 cell culture incubator. 2 μL of the compound was added to each well to final concentrations of 50 μM, 10 μM, 2 μM, 0.4 μM, and 0.08 μM and then incubated for 72 hours at 37° C. in a 5% CO2 cell incubator, with DMSO (2%) as a control group. […] Wells loaded with the corresponding amount of cell culture fluid the and CCK-8 solution but no cells were considered as blank controls. The absorbance (OD value) was measured at 450 nm using a microplate reader, and the obtained data was used to calculate IC50.

[2] = system: human mantle cell lymphoma (MINO); test: In-vitro tumor cell proliferation inhibition (CCK-8), MINO; conditions: 72 h, read-out: Tumor cell proliferation inhibitory activity (IC50, μM) MINO
[3] = system: human diffuse large B lymphoma (TMD-8); test: In-vitro tumor cell proliferation inhibition (CCK-8), TMD-8; conditions: TMD8, 72 h, read-out: Tumor cell proliferation inhibitory activity (IC50, nM) TMD-8
Protocol: as §1, §2, §3, §4

[4] = system: human lung cancer cell (A549); test: In-vitro tumor cell proliferation inhibition (CCK-8), A549; conditions: A549, 72 h, read-out: Tumor cell proliferation inhibitory activity (IC50, μM) A549
Protocol: as §1, §2, §3, §4

[5] = Oral pharmacokinetic experiment in SD rats; type: in vivo
Protocol: SD rats were used as experimental animals and were subjected to intragastric administration in a dose of 10 mg/kg and tail-vein intravenous injection in a dose of 2 mg/kg. The tail-vein blood sampling time points in the intragastric administration were 0.17, 0.33, 0.5, 1, 1.5, 2, 4, 6, 8, 12, and 24 hours; the blood sampling time points in the intravenous administration were 0.05, 0.1, 0.17, 0.5, 1, 2, 4, 6, 8, 12, and 24 hours. 0.3 ml of whole blood was taken, and 0.1 ml of plasma after centrifugation was taken and analyzed by LC-MS.

[6] = oral (intragastric) 10 mg/kg, mean n = 3

Sequence of BTK Kinase (Q06187 whole entry): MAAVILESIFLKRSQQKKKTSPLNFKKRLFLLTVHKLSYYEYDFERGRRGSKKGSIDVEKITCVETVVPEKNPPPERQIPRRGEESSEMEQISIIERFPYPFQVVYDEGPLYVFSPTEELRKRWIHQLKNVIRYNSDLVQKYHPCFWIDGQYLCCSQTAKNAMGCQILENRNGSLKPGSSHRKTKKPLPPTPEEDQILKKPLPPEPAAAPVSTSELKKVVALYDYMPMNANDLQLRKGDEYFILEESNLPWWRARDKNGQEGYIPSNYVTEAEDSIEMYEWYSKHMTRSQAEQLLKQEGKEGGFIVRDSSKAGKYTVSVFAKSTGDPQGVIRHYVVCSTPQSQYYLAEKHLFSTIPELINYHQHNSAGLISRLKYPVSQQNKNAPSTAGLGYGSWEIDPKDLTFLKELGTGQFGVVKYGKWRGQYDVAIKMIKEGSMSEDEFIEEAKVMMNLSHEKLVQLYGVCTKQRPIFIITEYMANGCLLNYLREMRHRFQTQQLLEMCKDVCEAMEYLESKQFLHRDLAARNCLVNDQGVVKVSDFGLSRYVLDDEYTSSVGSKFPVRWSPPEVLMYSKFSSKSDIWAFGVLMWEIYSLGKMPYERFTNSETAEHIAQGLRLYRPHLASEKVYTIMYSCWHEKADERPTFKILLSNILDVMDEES
Sequence of hERG potassium channel (Q12809 whole entry): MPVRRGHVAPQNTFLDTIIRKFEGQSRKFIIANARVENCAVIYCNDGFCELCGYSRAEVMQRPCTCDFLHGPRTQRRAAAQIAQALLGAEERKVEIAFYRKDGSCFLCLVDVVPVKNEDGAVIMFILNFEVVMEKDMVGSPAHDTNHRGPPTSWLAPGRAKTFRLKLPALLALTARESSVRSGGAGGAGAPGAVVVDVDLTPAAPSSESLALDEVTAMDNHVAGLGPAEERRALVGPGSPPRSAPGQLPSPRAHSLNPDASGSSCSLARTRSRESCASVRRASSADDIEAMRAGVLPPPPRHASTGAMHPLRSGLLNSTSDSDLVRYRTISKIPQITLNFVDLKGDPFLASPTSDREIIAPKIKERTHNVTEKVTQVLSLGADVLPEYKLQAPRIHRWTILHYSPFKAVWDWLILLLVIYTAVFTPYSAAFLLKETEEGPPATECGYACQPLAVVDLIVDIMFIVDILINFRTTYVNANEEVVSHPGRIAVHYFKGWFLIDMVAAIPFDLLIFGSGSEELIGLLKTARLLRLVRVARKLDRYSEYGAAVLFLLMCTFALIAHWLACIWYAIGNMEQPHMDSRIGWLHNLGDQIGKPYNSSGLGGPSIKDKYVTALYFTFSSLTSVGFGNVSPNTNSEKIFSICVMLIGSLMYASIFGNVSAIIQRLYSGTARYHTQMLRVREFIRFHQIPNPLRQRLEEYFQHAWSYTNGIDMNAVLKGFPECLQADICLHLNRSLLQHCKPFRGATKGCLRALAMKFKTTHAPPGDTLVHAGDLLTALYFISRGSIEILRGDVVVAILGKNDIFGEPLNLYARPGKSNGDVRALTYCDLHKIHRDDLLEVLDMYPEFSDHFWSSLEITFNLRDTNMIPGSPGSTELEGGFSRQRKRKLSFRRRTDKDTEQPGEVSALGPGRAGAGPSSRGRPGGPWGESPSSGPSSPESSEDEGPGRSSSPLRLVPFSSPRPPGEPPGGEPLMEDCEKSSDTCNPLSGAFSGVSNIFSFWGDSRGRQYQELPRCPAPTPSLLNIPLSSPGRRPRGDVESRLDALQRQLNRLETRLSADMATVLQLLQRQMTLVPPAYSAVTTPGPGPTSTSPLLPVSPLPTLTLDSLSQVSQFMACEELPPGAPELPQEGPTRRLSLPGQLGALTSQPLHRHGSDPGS

With `C=CC(=O)N1CCC[C@@H](n2nc(-c3ccc(Oc4ccccc4)nc3C)c3c(N)ncnc32)C1` [Compound 16d, (R)-1-(3-(4-amino-3-(2-methyl-6-phenoxypyridin-3-yl)-1H-pyrazolo[3,4-d]pyrimidin-1-yl)piperidin-1-yl)prop-2-en-1-one] the IC50 (BTK Kinase) was 7.2 nM.
In the case of `C=CC(=O)N1CCC[C@@H](n2nc(-c3cnc(Oc4ccccc4)c(F)c3)c3c(N)ncnc32)C1` [Compound 16b, (R)-1-(3-(4-amino-3-(5-fluoro-6-phenoxypyridin-3-yl)-1H-pyrazolo[3,4-d]pyrimidin-1-yl)piperidin-1-yl)prop-2-en-1-one], the IC50 (BTK Kinase) is reported as 8.6 nM.
In the case of `C=CC(=O)N1CCC[C@@H](n2nc(-c3ccc(Oc4ccc(F)c(F)c4)nc3)c3c(N)ncnc32)C1` [Compound 15f, (R)-1-(3-(4-amino-3-(6-(3,4-difluorophenoxypyridine)-3-yl)-1H-pyrazolo[3,4-d]pyrimidin-1-yl)piperidin-1-yl)prop-2-en-1-one], the IC50 (BTK Kinase) is reported as 25.3 nM.
With `C=CC(=O)N1CCC[C@@H](n2nc(-c3ccc(Oc4ccc(C(F)(F)F)cc4)nc3)c3c(N)ncnc32)C1` [Compound 15k, (R)-1-(3-(4-amino-3-(6-(4-trifluoromethylphenoxypyridine)-3-yl)-1H-pyrazolo[3,4-d]pyrimidin-1-yl)piperidin-1-yl)prop-2-en-1-one] the IC50 (BTK Kinase) was 18.2 nM.
`C=CC(=O)N1CCC[C@@H](n2nc(-c3ccc(Oc4ccc(OC)cc4)nc3)c3c(N)ncnc32)C1` [Compound 15j] showed an IC50 (BTK Kinase) of 32.5 nM and an IC50 (hERG potassium channel) of 17500 nM.
Compound `C=CC(=O)N1CC[C@@H](n2nc(-c3ccc(Oc4cccc(F)c4F)nc3)c3c(N)ncnc32)C1` [Compound 23d, (R)-1-(3-(4-amino-3-(6-(2,3-difluorophenoxy)pyridin-3-yl)-1H-pyrazolo[3,4-d]pyrimidin-1-yl)pyrrolidin-1-yl)prop-2-en-1-one] has an IC50 (BTK Kinase) of 7.4 nM.
Work on `Nc1ncnc2c1c(-c1ccc(Oc3ccccc3)nc1)nn2[C@@H]1CCCN(C(=O)C#CCCO)C1` [Compound 21c, (R)-1-(3-(4-amino-3-(6-phenoxypyridin-3-yl)-1H-pyrazolo[3,4-d]pyrimidin-1-yl)piperidin-1-yl)-5-hydroxypent-2-yn-1-one] yielded an IC50 (hERG potassium channel) of 25200 nM.
For `C=CC(=O)N1CCC[C@@H](n2nc(-c3ccc(Oc4c(F)cccc4F)nc3)c3c(N)ncnc32)C1` [Compound 15g, (R)-1-(3-(4-amino-3-(6-(2,6-difluorophenoxypyridine)-3-yl)-1H-pyrazolo[3,4-d]pyrimidin-1-yl)piperidin-1-yl)prop-2-en-1-one], the IC50 (BTK Kinase) was 7.8 nM.
`C=CC(=O)N1CC[C@@H](n2nc(-c3ccc(Oc4ccccc4F)nc3)c3c(N)ncnc32)C1` [Compound 23b, (R)-1-(3-(4-amino-3-(6-(2-fluorophenoxy)pyridin-3-yl)-1H-pyrazolo[3,4-d]pyrimidin-1-yl)pyrrolidin-1-yl)prop-2-en-1-one] gave an IC50 (BTK Kinase) of 9.6 nM.
For `C=CC(=O)N1CCC[C@@H](n2nc(-c3cnc(Oc4ccccc4)cc3F)c3c(N)ncnc32)C1` [Compound 16a, (R)-1-(3-(4-amino-3-(4-fluoro-6-phenoxypyridin-3-yl)-1H-pyrazolo[3,4-d]pyrimidin-1-yl)piperidin-1-yl)prop-2-en-1-one], the IC50 (BTK Kinase) was 8.9 nM and the IC50 (hERG potassium channel) was 6900 nM.
For `C=CC(=O)N1CCC[C@@H](n2nc(-c3ccc(Oc4cccc(F)c4)nc3)c3c(N)ncnc32)C1` [Compound 15c, (R)-1-(3-(4-amino-3-(6-(3-fluorophenoxypyridine)-3-yl)-1H-pyrazolo[3,4-d]pyrimidin-1-yl)piperidin-1-yl)prop-2-en-1-one], the IC50 [1] was 2.23 nM, the IC50 (BTK Kinase) was 8.6 nM and the IC50 [2] was 6.23 µM. The IC50 [3] was 4.12 nM and the IC50 [4] was 2.06 µM.
`C=CC(=O)N1CCC[C@@H](n2nc(-c3cnc(Oc4ccccc4)nc3)c3c(N)ncnc32)C1` [Compound 18, (R)-1-(3-(4-amino-3-(2-phenoxypyrimidin-5-yl)-1H-pyrazolo[3,4-d]pyrimidin-1-yl)piperidin-1-yl)prop-2-en-1-one] showed an IC50 [1] of 32.1 nM, an IC50 (BTK Kinase) of 10.3 nM and an IC50 [2] of 20.3 µM. It also gave an IC50 [3] of 8.14 nM and an IC50 [4] of 19.5 µM.
For `C=CC(=O)N1CC[C@@H](n2nc(-c3ccc(Oc4c(F)cccc4F)nc3)c3c(N)ncnc32)C1` [Compound 23c, (R)-1-(3-(4-amino-3-(6-(2,6-difluorophenoxy)pyridin-3-yl)-1H-pyrazolo[3,4-d]pyrimidin-1-yl)pyrrolidin-1-yl)prop-2-en-1-one], the IC50 (BTK Kinase) was 9.7 nM.
`C=CC(=O)N1CCC[C@@H](n2nc(-c3ccc(Oc4ccc(Cl)cc4)nc3)c3c(N)ncnc32)C1` [Compound 15e, (R)-1-(3-(4-amino-3-(6-(4-chlorophenoxypyridine)-3-yl)-1H-pyrazolo[3,4-d]pyrimidin-1-yl)piperidin-1-yl)prop-2-en-1-one] gave an IC50 (BTK Kinase) of 10.5 nM.
With `C=CC(=O)N1CCC[C@@H](n2nc(-c3ccc(Oc4ccccc4)cc3)c3c(N)ncnc32)C1` [Ibrutinib, reference compound] the AUC0-C(ng/h/mL) [5, 6] was 550 ng·h/mL, the AUC0-t (ng/h/mL) [5, 6] was 544 ng·h/mL and the bioavailability ([5]; rat, plasma, oral 10 mg/kg vs intravenous 2 mg/kg, mean n = 3) was 12.5%. For the same compound, the Cmax ([5]; rat, plasma, oral (intragastric) 10 mg/kg, mean n = 3) was 254 ng/mL.
In the case of `C=CC(=O)N1CC[C@H](n2nc(-c3ccc(Oc4ccccc4)nc3F)c3c(N)ncnc32)C1` [Compound 24b, (S)-1-(3-(4-amino-3-(2-fluoro-6-phenoxypyridin-3-yl)-1H-pyrazolo[3,4-d]pyrimidin-1-yl)pyrrolidin-1-yl)prop-2-en-1-one], the “oral bioavailability relative to ibrutinib” value ([5]; oral 10 mg/kg) is reported as 3.69 times.
Work on `C=CC(=O)N1CCC[C@@H](n2nc(-c3ccc(Oc4cccc(F)c4F)nc3)c3c(N)ncnc32)C1` [Compound 15h, (R)-1-(3-(4-amino-3-(6-(2,3-difluorophenoxypyridine)-3-yl)-1H-pyrazolo[3,4-d]pyrimidin-1-yl)piperidin-1-yl)prop-2-en-1-one] yielded an IC50 (BTK Kinase) of 3.2 nM.
`C=CC(=O)N1CCC[C@@H](n2nc(-c3cnc(Oc4ccccc4)cc3C)c3c(N)ncnc32)C1` [Compound 16c, (R)-1-(3-(4-amino-3-(4-methyl-6-phenoxypyridin-3-yl)-1H-pyrazolo[3,4-d]pyrimidin-1-yl)piperidin-1-yl)prop-2-en-1-one] showed an IC50 (BTK Kinase) of 6.6 nM.
